Laboratory results: patent US8008329B2 (Dong Wha Pharmaceutical Co., Ltd., priority 2008, dated 2011)
Marks after values point to notes of the source that are not given here.

Tested on: osteoclast differentiation
Assay: Osteoclast differentiation in co-culture of mouse bone marrow cells and ST2 cells, TRAP staining (Examples 8-9)
Assay type: cell-based
Details: for % number of osteoclast (vs. solvent control group): 0.1 μM each, day 7; for activity at 0.1 µM: Mus musculus, Osteoclast, 168 h, Individual treatment (compounds), day 7, read-out: % number of osteoclast (vs. solvent control group)
In short: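 Bone marrow cells from 6-8-week male ddY mice were co-cultured with ST2 stromal cells under 10^−8 M vitamin D3 and 10^−8 M dexamethasone, with compounds at 0.1 μM final (0.1% DMSO control), refreshed on days 3 and 5. On day 7, TRAP-positive osteoclasts with ≥6 nuclei were counted and expressed as % of solvent control (n=4).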

[1] = Combination treatment (alendronic acid + compounds)
[2] = Combination treatment (risedronic acid + compounds)

Structure (SMILES) | % number of osteoclast (vs. solvent control group) [1] | % number of osteoclast (vs. solvent control group) [2] | activity at 0.1 µM [%]
CN(C)CCc1sc(C2CCCCC2)nc1-c1ccc(OCCCCCOc2ccc(C(=N)NO)cc2)cc1 [Compound 250, N-hydroxy-4-(5-{4-[2-cyclohexyl-5-(2-dimethylamino-ethyl)-thiazol-4-yl]-phenoxy}-pentyloxy)-benzamidine] | 45 ± 5.2^b % | 12 ± 1.4^ac % | 52 ± 7.2
CCCN(CCC)CCc1sc(C2CCCCC2)nc1-c1ccc(OCCCCCOc2ccc(C(=N)NO)cc2)cc1 [Compound 251, N-hydroxy-4-(5-{4-[2-cyclohexyl-5-(2-dipropylamino-ethyl)-thiazol-4-yl]-phenoxy}-pentyloxy)-benzamidine] | 20 ± 6.4^ab % | 18 ± 4.4^ac % | 45 ± 9.6
N=C(NO)c1ccc(OCCCCCOc2ccc(-c3nc(C4CCCCC4)sc3CCNC3CC3)cc2)cc1 [Compound 252, N-hydroxy-4-(5-{4-[2-cyclohexyl-5-(2-cyclopropylamino-ethyl)-thiazol-4-yl]-phenoxy}-pentyloxy)-benzamidine] | 33 ± 6.6^b % | 19 ± 4.0^ac % | 44 ± 2.7
N=C(NO)c1ccc(OCCCCCOc2ccc(-c3nc(-c4ccccc4)sc3CCN3CCOCC3)cc2)cc1 [Compound 254, N-hydroxy-4-(5-{4-[5-(2-morpholin-4-yl-ethyl)-2-phenyl-thiazol-4-yl]-phenoxy}-pentyloxy)-benzamidine] | 29 ± 6.3^b % | 11 ± 2.5^ac % | 40 ± 8.3
CCc1nc(-c2ccc(OCCCCCOc3ccc(C(=N)NO)cc3)cc2)c(CCN2CCOCC2)s1 [Compound 255, N-hydroxy-4-(5-{4-[2-ethyl-5-(2-morpholin-4-yl-ethyl)-thiazol-4-yl]-phenoxy}-pentyloxy)-benzamidine] | 18 ± 1.7^ab % | 12 ± 3.1^ac % | 50 ± 3.9
CCc1nc(-c2ccc(OCCCCCOc3ccc(C(=N)NO)cc3)cc2)c(CCN2CCSCC2)s1 [Compound 256, N-hydroxy-4-(5-{4-[2-ethyl-5-(2-thiomorpholin-4-yl-ethyl)-thiazol-4-yl]-phenoxy}-pentyloxy)-benzamidine] | 26 ± 3.0^ab % | 12 ± 2.4^ac % | 49 ± 0.9
CNc1nc(-c2ccc(OCCCCCOc3ccc(C(=N)NO)cc3)cc2)c(CCN2CCSCC2)s1 [Compound 262, N-hydroxy-4-(5-{4-[2-methylamino-5-(2-thiomorpholin-4-yl-ethyl)-thiazol-4-yl]-phenoxy}-pentyloxy)-benzamidine] | 24 ± 2.6^ab % | 7 ± 4.9^ac % | 47 ± 4.2
CN(C)c1nc(-c2ccc(OCCCCCOc3ccc(C(=N)NO)cc3)cc2)c(CCN2CCOCC2)s1 [Compound 266, N-hydroxy-4-(5-{4-[2-dimethylamino-5-(2-morpholin-4-yl-ethyl)-thiazol-4-yl]-phenoxy}-pentyloxy)-benzamidine] | 36 ± 9.6^ab % | 26 ± 4.3^ac % | 64 ± 4
CN(C)c1nc(-c2ccc(OCCCCCOc3ccc(C(=N)NO)cc3)cc2)c(CCN2CCSCC2)s1 [Compound 267, N-hydroxy-4-(5-{4-[2-dimethylamino-5-(2-thiomorpholin-4-yl-ethyl)-thiazol-4-yl]-phenoxy}-pentyloxy)-benzamidine] | 33 ± 5.3^ab % | 13 ± 2.4^ac % | 68 ± 8.6
CC(C)C(=O)N(C)c1nc(-c2ccc(OCCCCCOc3ccc(C(=N)NO)cc3)cc2)c(CCN2CCOCC2)s1 [Compound 268, N-hydroxy-4-(5-{4-[2-(isobutyryl-methyl-amino)-5-(2-morpholin-4-yl-ethyl)-thiazol-4-yl]-phenoxy}-pentyloxy)-benzamidine] | 28 ± 1.7^b % | 17 ± 3.4^ac % | 52 ± 9.1
N=C(NO)c1ccc(OCCCCCOc2ccc(-c3nc(N(CCN4CCOCC4)Cc4ccccc4)sc3CCN3CCOCC3)cc2)cc1 [Compound 269, N-hydroxy-4-(5-{4-[2-[benzyl-(2-morpholin-4-yl-ethyl)-amino]-5-(2-morpholin-4-yl-ethyl)-thiazol-4-yl]-phenoxy}-pentyloxy)-benzamidine] | 23 ± 5.2^ab % | 17 ± 4.4^ac % | 38 ± 3.7
CCN(CC)c1nc(-c2ccc(OCCCCCOc3ccc(C(=N)NO)cc3)cc2)c(CCN2CCOCC2)s1 [Compound 270, N-hydroxy-4-(5-{4-[2-diethylamino-5-(2-morpholin-4-yl-ethyl)-thiazol-4-yl]-phenoxy}-pentyloxy)-benzamidine] | 28 ± 4.5^b % | 14 ± 2.1^ac % | 45 ± 6.9
COCCN(CCOC)c1nc(-c2ccc(OCCCCCOc3ccc(C(=N)NO)cc3)cc2)c(CCN2CCOCC2)s1 [Compound 271, N-hydroxy-4-(5-{4-[2-[bis-(2-methoxy-ethyl)-amino]-5-(2-morpholin-4-yl-ethyl)-thiazol-4-yl]-phenoxy}-pentyloxy)-benzamidine] | 13 ± 3.7^ab % | 16 ± 2.9^ac % | 30 ± 5.3
N=C(NO)c1ccc(OCCCCCOc2ccc(-c3nc(N4CCOCC4)sc3CCN3CCSCC3)cc2)cc1 [Compound 273, N-hydroxy-4-(5-{4-[2-morpholin-4-yl-5-(2-thiomorpholin-4-yl-ethyl)-thiazol-4-yl]-phenoxy}-pentyloxy)-benzamidine] | 25 ± 4.5^ab % | 11 ± 2.9^ac % | 53 ± 3.4
CN1CCN(CCc2sc(N3CCOCC3)nc2-c2ccc(OCCCCCOc3ccc(C(=N)NO)cc3)cc2)CC1 [Compound 274, N-hydroxy-4-[5-(4-{5-[2-(4-methyl-piperazin-1-yl)-ethyl]-2-morpholin-4-yl-thiazol-4-yl}-phenoxy)-pentyloxy]-benzamidine] | 31 ± 2.9^ab % | 13 ± 1.3^ac % | 65 ± 8.9
N=C(NO)c1ccc(OCCCCCOc2ccc(-c3nc(CN4CCCCC4)sc3CCN3CCOCC3)cc2)cc1 [Compound 276, N-hydroxy-4-(5-{4-[5-(2-morpholin-4-yl-ethyl)-2-piperidin-1-yl-methyl-thiazol-4-yl]-phenoxy}-pentyloxy)-benzamidine] | 21 ± 2.9^b % | 11 ± 3.1^c % | 41 ± 12.1
CC(C)c1nc(-c2ccc(OCCCCCOc3ccc(C(=N)NO)cc3)cc2)c(CCN(C(=O)c2ccncc2)C2CC2)s1 [Compound 280, N-hydroxy-4-{5-[4-(5-{2-[cyclopropyl-(pyridin-4-carbonyl)-amino]-ethyl}-2-isopropyl-thiazol-4-yl)-phenoxy]-pentyloxy}-benzamidine] | 25 ± 6.4^b % | 8 ± 1.4^ac % | 40 ± 5
N=C(NO)c1ccc(OCCCCCOc2ccc(-c3nc(C4CCCCC4)sc3CCN(C(=O)c3cccnc3)C3CC3)cc2)cc1 [Compound 281, N-hydroxy-4-{5-[4-(2-cyclohexyl-5-{2-[cyclopropyl-(pyridin-3-carbonyl)-amino]-ethyl}-thiazol-4-yl)-phenoxy]-pentyloxy}-benzamidine] | 22 ± 5.9^b % | 6 ± 2.5^ac % | 30 ± 7.6
CNC(=O)c1sc(C)nc1-c1ccc(OCCCCCOc2ccc(C(=N)NO)cc2)cc1 [Compound 282, N-hydroxy-4-{5-[4-(5-methylcarbamoyl-2-methyl-thiazol-4-yl)-phenoxy]-pentyloxy}-benzamidine] | 49 ± 9.9^ab % | 45 ± 5.2^ac % | 73 ± 7.1
Cc1nc(-c2ccc(OCCCCCOc3ccc(C(=N)NO)cc3)cc2)c(C(=O)NCCCn2ccnc2)s1 [Compound 284, N-hydroxy-4-{5-[4-(5-{3-imidazol-1-yl-propylcarbamoyl}-2-methyl-thiazol-4-yl)-phenoxy]-pentyloxy}-benzamidine] | 36 ± 5.0^ab % | 19 ± 5.8^ac % | 73 ± 7.7
CNC(=O)c1sc(N)nc1-c1ccc(OCCCCCOc2ccc(C(=N)NO)cc2)cc1 [Compound 285, N-hydroxy-4-{5-[4-(2-amino-5-methylcarbamoyl-thiazol-4-yl)-phenoxy]-pentyloxy}-benzamidine] | 53 ± 0.9% | 40 ± 3.9^ac % | 70 ± 8
